{"source": "ChEMBL document CHEMBL5096222", "about": "“Discovery of a Trifluoromethoxy Cyclopentanone Benzothiazole Receptor-Interacting Protein Kinase 1 Inhibitor as the Treatment for Alzheimer's Disease” (J Med Chem, 2022)", "key": {"HT-29": {"system": "HT-29", "assay": "Anti-necroptotic activity in TSZ induced human HT-29 cells assessed as increase in cell viability pretreated with compound followed by TSZ stimulation and measured after 16 hrs by celltiter-glo luminescent cell viability assay", "format": "functional, cell-based"}, "[1]": {"assay": "Cytotoxicity against human HT-29 cells assessed as reduction in cell viability by celltiter-glo luminescent cell viability assay", "format": "toxicity, cell-based"}, "[2]": {"target": "T1, Receptor-interacting serine/threonine-protein kinase 1 (Homo sapiens, UniProt Q13546)", "T1 sequence (Q13546 whole entry)": "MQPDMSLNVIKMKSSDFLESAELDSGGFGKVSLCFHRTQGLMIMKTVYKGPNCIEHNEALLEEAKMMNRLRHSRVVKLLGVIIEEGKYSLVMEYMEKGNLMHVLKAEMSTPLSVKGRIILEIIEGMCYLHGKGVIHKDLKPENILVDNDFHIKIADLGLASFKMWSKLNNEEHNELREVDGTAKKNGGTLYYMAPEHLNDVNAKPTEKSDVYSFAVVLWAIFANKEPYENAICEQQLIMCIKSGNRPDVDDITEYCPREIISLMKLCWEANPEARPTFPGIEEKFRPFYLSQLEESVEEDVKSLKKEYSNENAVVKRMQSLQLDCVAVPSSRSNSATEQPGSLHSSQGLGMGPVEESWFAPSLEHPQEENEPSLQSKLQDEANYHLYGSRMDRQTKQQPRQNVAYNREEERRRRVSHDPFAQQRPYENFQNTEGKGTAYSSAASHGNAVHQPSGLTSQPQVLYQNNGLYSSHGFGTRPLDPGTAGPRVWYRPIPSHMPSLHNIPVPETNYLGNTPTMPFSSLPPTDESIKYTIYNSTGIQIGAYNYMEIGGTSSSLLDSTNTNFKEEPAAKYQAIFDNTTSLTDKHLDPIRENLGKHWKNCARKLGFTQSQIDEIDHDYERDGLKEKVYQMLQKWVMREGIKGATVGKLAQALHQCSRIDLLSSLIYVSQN", "assay": "Binding affinity to recombinant human wild type partial length RIPK1 (M1 to K305 residues) expressed in bacterial expression system by KINOMEscan TM assay"}, "[3]": {"target": "Receptor-interacting serine/threonine-protein kinase 3 (Homo sapiens, UniProt Q9Y572)", "sequence (Q9Y572 whole entry, the tested form may be a part)": "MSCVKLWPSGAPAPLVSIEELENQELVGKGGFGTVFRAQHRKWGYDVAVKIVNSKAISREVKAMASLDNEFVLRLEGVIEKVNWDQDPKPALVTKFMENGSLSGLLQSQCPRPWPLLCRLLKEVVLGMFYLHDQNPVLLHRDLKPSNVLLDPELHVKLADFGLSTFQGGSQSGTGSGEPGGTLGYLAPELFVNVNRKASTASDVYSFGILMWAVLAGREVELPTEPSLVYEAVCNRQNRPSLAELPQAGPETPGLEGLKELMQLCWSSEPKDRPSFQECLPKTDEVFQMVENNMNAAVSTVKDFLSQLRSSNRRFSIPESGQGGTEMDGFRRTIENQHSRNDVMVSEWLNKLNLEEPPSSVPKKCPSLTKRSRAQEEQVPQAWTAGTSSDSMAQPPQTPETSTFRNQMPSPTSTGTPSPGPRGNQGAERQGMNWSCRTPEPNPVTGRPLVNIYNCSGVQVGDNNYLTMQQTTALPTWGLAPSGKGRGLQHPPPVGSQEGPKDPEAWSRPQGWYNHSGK", "assay": "Binding affinity to recombinant human wild type partial length RIPK3 (M1 to Q307 residues) expressed in bacterial expression system by KINOMEscan TM assay"}}, "data": [{"smiles": "O=C(Cc1cccc(OC(F)(F)F)c1)Nc1cc(Oc2cc3nc(NC(=O)C4CCOC4)sc3cc2F)ccc1F", "note": "(configuration not stated)", "values": [{"measurement": "EC50", "setting": "HT-29", "result": 13, "unit": "nM"}, {"measurement": "CC50", "setting": "[1]", "result": "> 50000", "unit": "nM"}, {"measurement": "Kd", "setting": "[2]", "result": 12, "unit": "nM"}, {"measurement": "Kd", "setting": "[3]", "result": "> 5000", "unit": "nM"}]}, {"smiles": "O=C(Cc1cccc(OC(F)(F)F)c1)Nc1cc(Oc2cc3nc(NC(=O)C4CC4)sc3cc2F)ccc1F", "values": [{"measurement": "EC50", "setting": "HT-29", "result": 82, "unit": "nM"}, {"measurement": "CC50", "setting": "[1]", "result": "> 50000", "unit": "nM"}, {"measurement": "Kd", "setting": "[2]", "result": 49, "unit": "nM"}, {"measurement": "Kd", "setting": "[3]", "result": 120, "unit": "nM"}]}, {"smiles": "CC1(C)CC1C(=O)Nc1nc2cc(Oc3ccc(F)c(NC(=O)Cc4cccc(OC(F)(F)F)c4)c3)c(F)cc2s1", "note": "(configuration not stated)", "values": [{"measurement": "EC50", "setting": "HT-29", "result": 12, "unit": "nM"}, {"measurement": "CC50", "setting": "[1]", "result": "> 50000", "unit": "nM"}, {"measurement": "Kd", "setting": "[2]", "result": 25, "unit": "nM"}, {"measurement": "Kd", "setting": "[3]", "result": "> 5000", "unit": "nM"}]}]}
